Patent US10946033B2, “2′-substituted-N6-substituted purine nucleotides for RNA virus treatment” (priority 2016, dated 2021)
Where two headings read alike, the source gives them in different places.

Assays:
[1] = test system: Dengue virus type 2 (DENV-2); test: microbe, parasite or virus in culture; type: cell-based; details: read-out: DENV-2 EC50
Yellow Fever (YFV) = test: microbe, parasite or virus in culture; type: cell-based, Yellow Fever virus; details: read-out: YFV EC50
[2] = Yellow fever virus, BHK-21, 144 h

SMILES | EC50 ([1]; Dengue virus, DENV2, 144 h) [µM] | EC50 (Yellow Fever (YFV); [2]) [µM] | EC50 [1] [µM] | EC50 (Yellow Fever (YFV)) [µM]
C#C[C@@]1(F)[C@H](O)[C@@H](COP(=O)(N[C@@H](C)C(=O)OC(C)C)Oc2ccccc2)O[C@H]1n1cnc2c(N(C)C)nc(N)nc21 (mixture of isomers) [Compound 2, (2S)-Isopropyl 2-(((((2R,3R,4R,5R)-5-(2-amino-6-(dimethylamino)-9H-purin-9-yl)-4-ethynyl-4-fluoro-3-hydroxytetrahydrofuran-2-yl)methoxy)(phenoxy)phosphoryl)amino) propanoate] | 72.5 | 12.6 |  | 
C#C[C@@]1(F)[C@H](O)[C@@H](COP(=O)(N[C@@H](C)C(=O)OC(C)C)Oc2ccccc2)O[C@H]1n1cnc2c(NC)nc(N)nc21 (stereo partly drawn) [Compound 4, (2S)-Isopropyl 2-(((((2R,3R,4R,5R)-5-(2-amino-6-(methylamino)-9H-purin-9-yl)-4-ethynyl-4-fluoro-3-hydroxytetrahydrofuran-2-yl)methoxy)phenoxy)phosphoryl)-amino) Propanoate] |  |  | 612 | 7
C#C[C@@]1(F)[C@H](O)[C@@H](COP(=O)(N[C@@H](C)C(=O)OC(C)C)Oc2ccccc2)O[C@H]1n1cnc2c(NC3CC3)nc(N)nc21 (stereo partly drawn) [Compound 6, (2S)-Isopropyl 2-(((((2R,3R,4R,5R)-5-(2-amino-6-(cyclopropylamino)-9H-purin-9-yl)-4-ethynyl-4-fluoro-3-hydroxytetrahydrofuran-2-yl)methoxy)phenoxy)phosphoryl)amino) propanoate] |  |  | 42 | 
CC(C)OC(=O)[C@H](C)N[P@](=O)(OC[C@H]1C(C)[C@@H](n2cnc3c(N)ncnc32)[C@H](O)[C@@H]1O)Oc1ccccc1 (stereo partly drawn) [Compound 204, (2S)-Isopropyl 2-(((S)-(((1R,3R,4S,5R)-3-(6-amino-9H-purin-9-yl)-4,5-dihydroxy-2-methylcyclopentyl)methoxy)(phenoxy)phosphoryl)amino)propanoate] | > 2.1 | > 2.1 |  | 
CNc1nc(N)nc2c1ncn2[C@@H]1O[C@H](CO[P@@](=O)(N[C@@H](C)C(=O)OC(C)C)Oc2ccccc2)[C@@H](O)[C@@]1(C)F [Compound 205, isopropyl ((((R,S)-(2R,3R,4R,5R)-5-(2-amino-6-(methylamino)-9H-purin-9-yl)-4-fluoro-3-hydroxy-4-methyltetrahydrofuran-2-yl)methoxy)-phenoxy-phosphoryl)-L-alaninate] | 0.8 | 1.2 |  | 
CC1[C@@H](n2cnc3c(N)ncnc32)[C@H](O)[C@H](O)[C@H]1CO (some centres unmarked) [Compound 206] | 1.83 | 2.3 |  | 
